Results published in patent publication US20220273688A1, “Treatment of Glycosylation Deficiency Diseases” (Wellstat Therapeutics Corporation, priority 2014, published 2022).

Tests used:
[1] = system: Phosphoglucomutase-1 (PGM-1) deficiency; settings: galactose 0.5 to 1 g/kg per day; cited from earlier work
[2] = system: patient with GNE myopathy; test: Treatment of a GNE myopathy patient with N-acetylmannosamine plus uridine triacetate; type: in vivo, human; settings: uridine triacetate 2 g/m2 BSA twice per day with oral N-acetylmannosamine 3 to 10 grams per day
Procedure: A patient displaying progressive distal muscle weakness, with vacuoles and filamentous inclusions in a muscle biopsy, is diagnosed with GNE myopathy by testing for mutations in GNE, which result in impaired synthesis of endogenous sialic acid. The patient is treated with oral N-acetylmannosamine at a dose of 3 to 10 grams per day. The patient is also treated with uridine triacetate a dosage of 2 grams per square meter of body surface area administered twice per day.

[3] = system: patient with phosphoglucomutase-1 deficiency (Type II CDG); test: Treatment of a phosphoglucomutase-1 deficiency patient with d-galactose plus uridine triacetate; type: in vivo, human; settings: uridine triacetate 2 g/m2 BSA twice per day with 1 gram/kg d-galactose per day
Description: A patient with multisystem disease consistent with phosphoglucomutase deficiency receives a definitive diagnosis via detection of impaired transferring glycosylation and a mutation in PGM-1.

[4] = system: patient with congenital disorder of glycosylation (reduced availability of a uridine-diphospho sugar); test: Treatment of a CDG patient with oral uridine triacetate; type: in vivo, human; settings: 2 grams per square meter of body surface area, three times per day
Procedure: A patient displaying developmental delays is diagnosed with a congenital disorder of glycosylation by detection of a mutation affecting glycosylation by reducing availability of a uridine-diphospho sugar, corroborated by biochemical measurements in cells from the patient. The patient is treated with oral uridine triacetate at a dose of 2 grams per square meter of body surface area, administered three times per day.

[5] = system: patient with GPT deficiency (Type II CDG); test: Treatment of a GPT deficiency patient with N-acetylglucosamine plus uridine triacetate; type: in vivo, human; settings: uridine triacetate 2 g/m2 BSA twice per day with N-acetylglucosamine 200 mg/kg per day
Procedure: A patient displaying severe hypotonia, medically intractable seizures, developmental delay andmicrocephaly is diagnosed with a deficiency of activity of the enzyme GPT, a Type II CDG, by detection of a mutation in its encoding gene DPAGT-1. (“GPT” is the enzyme dolichol phosphate N-acetyl-glucosamine-1 phosphate transferase; “DPAGT-1” is the gene that encodes GPT.) The patient is treated with N-acetylglucosamine at a dose of 200 mg/kg per day. The patient is also treated with uridine triacetate a dosage of 2 grams per square meter of body surface area administered twice per day.

Compound	symptom resolution [1]	clinical response versus N-acetylmannosamine alone [2]	clinical response versus d-galactose alone [3]	response to treatment (protein glycosylation and clinical condition) [4]	clinical response versus N-acetylglucosamine alone [5]
O=C[C@H](O)[C@@H](O)[C@@H](O)[C@H](O)CO [galactose]	partial resolution of some symptoms	–	–	–	–
CC(=O)OC[C@H]1O[C@@H](n2ccc(=O)[nH]c2=O)[C@H](OC(C)=O)[C@@H]1OC(C)=O [uridine triacetate, 2′,3′,5′-tri-O-acetyluridine]	–	improves the clinical response beyond that achieved with N-acetylmannosamine alone	improves the clinical response beyond that achieved with d-galactose alone	responds to treatment, displaying biochemical measures of improved protein glycosylation and concurrent improvements in clinical condition	improves the clinical response beyond that achieved with N-acetylglucosamine alone
